Measured values published in patent publication US20230404969A1, “COMPOSITIONS AND METHOD FOR EFFECTIVE MANAGEMENT OF PERITONITIS” (priority 2022, published 2023).
Several values for one entry are separate records, joined by “and”; a condition that tells them apart may be missing. Identical values can stand only once.

Tests used:
[1] = system: polymorphonuclear leukocytes, macrophages, lymphocytes; assay: Zymosan A induced peritonitis, acute study: intraperitoneal cellular influx; format: in vivo, BALB/c male mice; conditions: 2 mg/kg p.o (of 0.5, 1, 2, 4 mg/kg); 4, 12, 24 and 48 hrs after Zymosan A i.p.
Description: Peritoneal inflammation was induced according to Doherty et al. in BALB/c male mice aged 6-8 weeks. Zymosan A (Sigma Chemical) was prepared freshly (2 mg/ml) in sterile, 0.9% w/v saline, and 0.5 ml was injected i.p. Zymosan A is a cell wall component of fungus, caused proliferative peritonitis with severe accumulation of inflammatory cells. At the selected time points 4, 12, 24 and 48 hrs, the peritoneal cavity was lavaged with 1.5 ml saline, and after a 30-s gentle manual massage, 0.5 ml exudate was retrieved, centrifuged at 3000 g for 3 min. 0.5 ml exudate was collected and used freshly for cell counts.

[2] = system: CD8+ T cells; assay: Zymosan peritonitis chronic study: peripheral blood CD8+ T cell population (flow cytometry); format: in vivo, mouse; conditions: Withanone 2 mg/kg, day 36
Description: (§1) Peritoneal inflammation was induced by Zymosan A (Sigma Chemical) (Masashi et al. Zymosan, but Not Lipopolysaccharide, Triggers Severe and Progressive Peritoneal Injury Accompanied by complement Activation in a Rat Peritonitis Model) was prepared freshly in sterile, 0.9% w/v saline, and 0.5 ml was injected i.p. from day 0 to Day 5. The lymphocyte population in the peripheral blood was determined with a flow cytometer. Cells were phenotyped by flow cytometry with the following primary antibodies: CD4 (FITC) and CD8 (PE). Cells were gated broadly on all live lymphocyte cells, with only debris and multiple cell clusters being excluded. Analysis of mean fluorescence intensity was done and percentage cell population was evaluated. The test drugs were administered for 30 days after the induction of peritonitis. […]
Flow cytometry enables the characterization of cells and subcellular organelles on the basis of size and granularity and a number of different parameters defined by fluorescent probes. […] Fluorochrome labelled monoclonal antibodies directed against co-receptors CD4 and CD8 were used to quantify the lymphocyte subsets in a multiparametric flow cytometric assay. […]

[3] = system: IFN-γ; assay: Cytometric Bead Array of peritoneal fluid, chronic zymosan peritonitis: IFN-γ; format: in vivo, mouse; conditions: 2 mg/kg, vs Zymosan control
Description: as §1, with “evaluated.” for “evaluated. The test drugs were administered for 30 days after the induction of peritonitis.”
The Cytometric Bead Array (Mouse Inflammation kit) was used to study cytokines in peritoneal fluid. […] Briefly, a mixture of 6 capture bead populations (50 μl) with distinct fluorescence intensities (detected in FL3) coated with antibodies specific for the above cytokines was mixed with each sample/standard (50 μl). […] Following acquisition of data by two colour cytometric analysis, the sample results were analysed using CBA software (BD Biosciences). […] Individual cytokine concentration ratios were indicated by their fluorescent intensities and was determined by interpolation from the corresponding standard curve.

[4] = system: gut bacteria; assay: Bacterial translocation from the gut into organs: total of study group of 30; format: in vivo; conditions: Withanone 2 mg/kg; positive/30 mice
Description: (§2) Peritoneal inflammation was induced by Zymosan A (Sigma Chemical) (Masashi et al. Zymosan, but Not Lipopolysaccharide, Triggers Severe and Progressive Peritoneal Injury Accompanied by complement Activation in a Rat Peritonitis Model) was prepared freshly in sterile, 0.9% w/v saline, and 0.5 ml was injected i.p. from day 0 to Day 5. The lymphocyte population in the peripheral blood was determined with a flow cytometer. Cells were phenotyped by flow cytometry with the following primary antibodies: CD4 (FITC) and CD8 (PE). Cells were gated broadly on all live lymphocyte cells, with only debris and multiple cell clusters being excluded. Analysis of mean fluorescence intensity was done and percentage cell population was evaluated. The test drugs were administered for 30 days after the induction of peritonitis. On 36th day the peritoneal cavity was lavaged with 1.5 ml saline, and after a 30-s gentle manual massage, 0.5 ml exudate was retrieved, centrifuged at 3000 g for 3 min, and frozen at […] prior to cytokine and chemotactic-factor assessment.
Intestine serves as a barrier in preventing gut bacteria and/or endotoxin from spreading to organs and tissues. It is also known that bacterial translocation occurs in critically ill or immunocompromised patients, and the physical disruption of mucosal barrier in vivo rodent models seem to be a key factor Tor translocation (Deitch et al. Effect of hemorrhagic shock on bacterial translocation, intestinal morphology, and intestinal permeability in conventional and antibiotic-decontaminated rats; Critical Care Medicine; 1990 18(5)). Bacterial translocation from the gut into the peritoneal cavity and organs was analyzed. The mesenteric lymph nodes, liver, and spleen of mice, study group of 30, were removed using sterile instruments. The organs were then homogenized in 1 ml of sterile cooked meat broth and 50 μl of organ homogenate was spread on blood agar plates to detect aerobic bacteria and Eosin Methylene blue agar plates to detect specially for E. coli. These plates were then incubated at 37° C. for 2 days. […]

[5] = system: Membrane attack complex (MAC); assay: Membrane attack complex in peritoneal exudate (ELISA), chronic zymosan peritonitis; format: in vivo, mouse; conditions: 2 mg/kg, day 36
Description: as §2
Assembly of Membrane attack complex (MAC) results from the complex pathway starting from C5 convertase cleaving C5 to form C5a and C5b. […] The protein concentrations were carried out by means of colorimetric measurement at 450 nm on an ELISA plate reader by interpolation from a standard curve. […]

CC1=C(C)C(=O)O[C@@H]([C@@H](C)[C@@]2(O)CC[C@H]3[C@@H]4[C@@H]5O[C@@H]5[C@@]5(O)CC=CC(=O)[C@]5(C)[C@H]4CC[C@@]32C)C1 [Withanone]
Inhibition of intraperitoneal cellular influx [1]: maximum effect in inhibiting cellular influx | Inhibition of CD8+ compared to T cell population of Zymosan control [2]: 44% | Inhibition of IFN-γ [3]: 44% | Bacterial translocation, Liver, total [4]: 3/30 | Bacterial translocation, Mesenteric Lymph Nodes, total [4]: 5 out of 30 and 5/30 | Bacterial translocation, Spleen, total [4]: 3/30 | Decrease of expression levels of MAC compared to the Zymosan control [5]: 56%
